The MIC is the least concentration at which growth counts as inhibited.

For the test, the system named is Enterococcus faecalis BG-029. Description: MIC by microdilution test (NCCLS). Type of test: cell-based. The note with it: clinical isolate from human urine, resistant to ciprofloxacin. On the procedure: A clinical isolate of Enterococcus faecalis BG-029 from human urine was used.
The MICs were determined by the microdilution test according to the NCCLS Guidelines.

Converted amounts (≈) assume the structure as drawn.

Molecule `OCCN1CCN(CC/C=C2\c3ccccc3Sc3ccc(Cl)cc32)CC1` [trans-clopenthixol] came in with an MIC of 6 µg/mL (≈ 15 µM).
